Measured values taken from ChEMBL document CHEMBL5214927, “Recent advance on carbamate-based cholinesterase inhibitors as potential multifunctional agents against Alzheimer's disease” (Eur J Med Chem, 2022).

What was measured:
Acetylcholinesterase [1] = target: T1, Acetylcholinesterase (Rattus norvegicus, UniProt P37136); assay: Inhibition of rat AChE
T1 sequence (P37136 whole entry): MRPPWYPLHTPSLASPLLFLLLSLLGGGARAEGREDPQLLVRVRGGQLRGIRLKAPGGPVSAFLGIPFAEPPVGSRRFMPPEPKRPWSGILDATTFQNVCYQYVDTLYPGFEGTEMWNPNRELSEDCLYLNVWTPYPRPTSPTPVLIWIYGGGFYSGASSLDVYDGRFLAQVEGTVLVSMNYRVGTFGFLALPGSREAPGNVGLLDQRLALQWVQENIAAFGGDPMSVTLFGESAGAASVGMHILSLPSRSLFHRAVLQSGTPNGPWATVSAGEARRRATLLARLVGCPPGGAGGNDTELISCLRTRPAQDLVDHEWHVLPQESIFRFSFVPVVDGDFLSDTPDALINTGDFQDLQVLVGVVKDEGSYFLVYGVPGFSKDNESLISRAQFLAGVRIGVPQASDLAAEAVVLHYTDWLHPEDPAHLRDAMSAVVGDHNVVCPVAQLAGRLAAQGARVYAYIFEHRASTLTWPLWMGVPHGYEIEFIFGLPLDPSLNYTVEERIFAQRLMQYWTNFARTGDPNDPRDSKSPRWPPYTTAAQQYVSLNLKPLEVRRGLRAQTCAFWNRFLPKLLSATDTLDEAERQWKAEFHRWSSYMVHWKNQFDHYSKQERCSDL

Cholinesterase [2] = target: T2, Cholinesterase (Homo sapiens, UniProt P06276); assay: Inhibition of recombinant human serum BChE using butyrylthiocholine iodide as substrate preincubated for 20 mins followed by substrate addition measured after 5 mins by Ellman's method
Acetylcholinesterase [3] = target: T3, Acetylcholinesterase (Homo sapiens, UniProt P22303); assay: Inhibition of recombinant human serum AChE using acetylthiocholine iodide as substrate preincubated for 20 mins followed by substrate addition measured after 5 mins by Ellman's method
[4] = target: T4, Cholinesterases; ACHE & BCHE (Homo sapiens) (UniProt P06276+P22303); assay: Selectivity index, ratio of IC50 for recombinant human serum BChE to IC50 for recombinant human serum AChE; assay type: protein assay
Acetylcholinesterase [5] = target: T3, Acetylcholinesterase; assay: Inhibition of recombinant human serum AChE using acetylthiocholine iodide as substrate preincubated for 20 mins followed by substrate addition by Ellman's method
Cholinesterase [6] = target: T2, Cholinesterase; assay: Inhibition of recombinant human serum BChE using acetylthiocholine iodide as substrate preincubated for 20 mins followed by substrate addition by Ellman's method
Acetylcholinesterase [7] = target: T3, Acetylcholinesterase; assay: Inhibition of human AChE
Cholinesterase [8] = target: T2, Cholinesterase; assay: Inhibition of human BChE
[9] = target: T4, Cholinesterases; ACHE & BCHE (Homo sapiens); assay: Selectivity index, ratio of IC50 for human AChE to IC50 for human BChE; assay type: protein assay
[10] = target: T5, Amine oxidase [flavin-containing] A (Homo sapiens, UniProt P21397); assay: Inhibition of MAO-A (unknown origin)
T5 sequence (P21397 whole entry): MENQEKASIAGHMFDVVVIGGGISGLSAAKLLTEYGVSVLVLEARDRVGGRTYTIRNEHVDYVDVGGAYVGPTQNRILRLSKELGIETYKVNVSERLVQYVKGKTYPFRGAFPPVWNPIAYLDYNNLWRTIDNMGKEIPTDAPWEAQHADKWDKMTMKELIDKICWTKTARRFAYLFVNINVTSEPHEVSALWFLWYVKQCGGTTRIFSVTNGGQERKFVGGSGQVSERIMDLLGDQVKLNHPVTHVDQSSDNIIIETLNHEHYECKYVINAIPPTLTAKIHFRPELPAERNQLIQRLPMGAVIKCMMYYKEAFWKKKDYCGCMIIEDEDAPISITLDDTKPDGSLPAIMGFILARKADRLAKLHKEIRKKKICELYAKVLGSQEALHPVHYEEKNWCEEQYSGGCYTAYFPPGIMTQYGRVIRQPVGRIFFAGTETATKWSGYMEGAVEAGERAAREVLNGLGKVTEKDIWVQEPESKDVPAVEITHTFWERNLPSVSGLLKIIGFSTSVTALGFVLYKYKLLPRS

[11] = target: T6, Amine oxidase [flavin-containing] B (Homo sapiens, UniProt P27338); assay: Inhibition of MAO-B (unknown origin)
T6 sequence (P27338 whole entry): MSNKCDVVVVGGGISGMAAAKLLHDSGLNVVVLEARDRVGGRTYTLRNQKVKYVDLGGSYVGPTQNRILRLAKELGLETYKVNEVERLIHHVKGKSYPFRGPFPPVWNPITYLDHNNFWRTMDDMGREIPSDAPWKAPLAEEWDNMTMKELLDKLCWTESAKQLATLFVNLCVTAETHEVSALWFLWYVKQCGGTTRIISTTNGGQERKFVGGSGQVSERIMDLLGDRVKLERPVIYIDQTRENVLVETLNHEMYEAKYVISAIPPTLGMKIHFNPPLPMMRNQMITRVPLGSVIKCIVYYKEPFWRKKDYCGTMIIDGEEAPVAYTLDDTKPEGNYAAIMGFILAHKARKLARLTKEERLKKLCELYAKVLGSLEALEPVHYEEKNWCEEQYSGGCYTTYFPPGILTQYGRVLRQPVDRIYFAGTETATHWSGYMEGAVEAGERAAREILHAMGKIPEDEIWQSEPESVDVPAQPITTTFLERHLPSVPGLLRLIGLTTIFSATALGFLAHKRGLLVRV

Acetylcholinesterase [12] = target: T3, Acetylcholinesterase; assay: Inhibition of recombinant human AChE
Cholinesterase [13] = target: T7, Cholinesterase (Equus caballus, UniProt P81908); assay: Inhibition of equine BChE using acetylthiocholine iodide as substrate preincubated for 10 mins followed by substrate addition by Ellman's method
[14] = target: T4, Cholinesterases; ACHE & BCHE (Homo sapiens); assay: Selectivity index, ratio of IC50 for AChE (unknown origin) to BChE (unknown origin); assay type: protein assay
Acetylcholinesterase [15] = target: T8, Acetylcholinesterase (Electrophorus electricus, UniProt O42275); assay: Inhibition of electric eel AChE
Cholinesterase [16] = target: T7, Cholinesterase; assay: Inhibition of equine BChE
[17] = Selectivity index, ratio of IC50 for electric eel AChE to IC50 for equine BChE
Cholinesterase [18] = target: T2, Cholinesterase; assay: Inhibition of human serum BChE using butyrylthiocholine as substrate by Ellman's method
Acetylcholinesterase [19] = target: T3, Acetylcholinesterase
Description: Inhibition of human erythrocyte AChE using acetylthiocholine iodide as substrate preincubated for 30 mins followed by substrate addition measured after 5 mins by Ellman's method

Cholinesterase [20] = target: T2, Cholinesterase; assay: Inhibition of BChE (unknown origin)
Acetylcholinesterase [21] = target: T3, Acetylcholinesterase; assay: Inhibition of AChE (unknown origin)
Acetylcholinesterase [22] = target: T8, Acetylcholinesterase; assay: Inhibition of electric eel AChE using acetylthiocholine iodide as substrate incubated for 30 mins by Ellman's method
Acetylcholinesterase [23] = target: T8, Acetylcholinesterase; assay: Binding affinity to electric eel AChE assessed as inhibition constant using acetylthiocholine iodide as substrate incubated for 30 mins by Ellman's method

T8 sequence (O42275 whole entry): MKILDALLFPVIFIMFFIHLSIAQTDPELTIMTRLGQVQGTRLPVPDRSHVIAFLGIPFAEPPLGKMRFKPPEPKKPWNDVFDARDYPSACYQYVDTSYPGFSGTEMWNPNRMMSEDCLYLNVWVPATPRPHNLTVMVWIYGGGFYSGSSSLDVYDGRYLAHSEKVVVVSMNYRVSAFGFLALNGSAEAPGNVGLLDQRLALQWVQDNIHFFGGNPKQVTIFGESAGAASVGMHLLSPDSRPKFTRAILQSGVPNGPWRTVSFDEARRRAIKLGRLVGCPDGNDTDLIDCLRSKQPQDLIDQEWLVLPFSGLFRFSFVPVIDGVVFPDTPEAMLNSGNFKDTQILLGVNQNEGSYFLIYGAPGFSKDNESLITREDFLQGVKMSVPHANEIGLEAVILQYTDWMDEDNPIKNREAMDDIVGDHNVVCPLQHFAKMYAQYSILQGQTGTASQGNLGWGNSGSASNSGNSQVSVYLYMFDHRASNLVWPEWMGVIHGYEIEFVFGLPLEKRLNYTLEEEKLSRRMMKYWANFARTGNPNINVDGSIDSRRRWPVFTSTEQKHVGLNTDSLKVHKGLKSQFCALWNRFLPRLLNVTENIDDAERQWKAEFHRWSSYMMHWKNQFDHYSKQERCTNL
T7 sequence (P81908 whole entry): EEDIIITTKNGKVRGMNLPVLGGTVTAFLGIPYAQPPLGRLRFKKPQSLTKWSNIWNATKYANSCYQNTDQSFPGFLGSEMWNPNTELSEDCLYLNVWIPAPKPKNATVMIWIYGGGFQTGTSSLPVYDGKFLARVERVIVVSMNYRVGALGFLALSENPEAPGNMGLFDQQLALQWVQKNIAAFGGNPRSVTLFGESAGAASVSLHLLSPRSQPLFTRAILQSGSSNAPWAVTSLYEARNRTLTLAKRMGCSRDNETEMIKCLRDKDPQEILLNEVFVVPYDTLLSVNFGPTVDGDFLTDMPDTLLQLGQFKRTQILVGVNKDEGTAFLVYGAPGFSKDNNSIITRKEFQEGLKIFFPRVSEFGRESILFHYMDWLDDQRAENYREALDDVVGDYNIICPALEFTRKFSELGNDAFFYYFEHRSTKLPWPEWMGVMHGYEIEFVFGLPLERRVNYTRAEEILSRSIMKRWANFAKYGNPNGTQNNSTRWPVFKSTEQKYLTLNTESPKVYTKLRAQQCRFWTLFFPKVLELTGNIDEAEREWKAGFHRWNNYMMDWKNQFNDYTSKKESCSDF
T4 sequence (P06276 whole entry, looked up): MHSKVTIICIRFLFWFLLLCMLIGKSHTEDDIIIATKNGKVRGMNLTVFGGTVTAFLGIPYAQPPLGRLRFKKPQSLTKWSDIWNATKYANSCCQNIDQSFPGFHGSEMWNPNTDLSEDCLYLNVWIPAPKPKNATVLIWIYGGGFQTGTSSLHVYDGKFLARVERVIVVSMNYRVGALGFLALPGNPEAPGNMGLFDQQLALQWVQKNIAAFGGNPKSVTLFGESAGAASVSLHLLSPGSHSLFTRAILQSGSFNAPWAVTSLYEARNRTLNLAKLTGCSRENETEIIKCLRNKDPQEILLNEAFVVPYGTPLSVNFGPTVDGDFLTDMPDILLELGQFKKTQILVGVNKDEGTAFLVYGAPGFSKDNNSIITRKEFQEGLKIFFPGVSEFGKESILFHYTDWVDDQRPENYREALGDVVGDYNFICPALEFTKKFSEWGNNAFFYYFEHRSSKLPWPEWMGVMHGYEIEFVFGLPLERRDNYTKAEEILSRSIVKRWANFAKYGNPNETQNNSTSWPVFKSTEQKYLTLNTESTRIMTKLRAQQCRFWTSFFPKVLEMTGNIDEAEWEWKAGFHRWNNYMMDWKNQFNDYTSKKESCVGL
T4 sequence (P22303 whole entry, looked up): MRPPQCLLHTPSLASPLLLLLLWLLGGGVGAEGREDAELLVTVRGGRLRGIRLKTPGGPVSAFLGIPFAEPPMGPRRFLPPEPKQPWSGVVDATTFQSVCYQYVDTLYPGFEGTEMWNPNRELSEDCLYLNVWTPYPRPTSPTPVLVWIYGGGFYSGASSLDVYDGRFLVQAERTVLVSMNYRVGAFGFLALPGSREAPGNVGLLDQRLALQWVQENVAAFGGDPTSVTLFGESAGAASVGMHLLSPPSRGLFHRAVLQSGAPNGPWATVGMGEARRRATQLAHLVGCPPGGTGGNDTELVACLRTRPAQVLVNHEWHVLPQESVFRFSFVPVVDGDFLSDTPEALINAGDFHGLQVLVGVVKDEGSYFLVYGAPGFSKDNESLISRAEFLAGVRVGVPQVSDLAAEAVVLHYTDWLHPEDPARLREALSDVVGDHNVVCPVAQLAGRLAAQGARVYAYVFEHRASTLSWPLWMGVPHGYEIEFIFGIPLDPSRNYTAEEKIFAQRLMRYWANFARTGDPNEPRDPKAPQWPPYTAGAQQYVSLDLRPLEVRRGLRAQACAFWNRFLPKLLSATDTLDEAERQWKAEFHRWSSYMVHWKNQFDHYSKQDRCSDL
T2 sequence (P06276 whole entry): as the sequence (P06276 whole entry, looked up) above
T3 sequence (P22303 whole entry): as the sequence (P22303 whole entry, looked up) above

## CN[C@@H](CCOc1ccc([N+](=O)[O-])cc1)c1ccc(OC(=O)N(C)C)cc1
Acetylcholinesterase [1]
  IC50: 0.101 µM

## CNC(=O)Oc1cccc(CN(C)CCCCCCOc2ccc3c(c2)O/C(=C\c2cc(OC)c(OC)c(OC)c2)C3=O)c1
Cholinesterase [2]
  IC50: 0.136 µM
Acetylcholinesterase [3]
  IC50: 0.00052 µM
[4]
  Ratio IC50: 261

## CNC(=O)Oc1cccc(CN(C)CCCCCCCOc2ccc(-c3cc(=O)c4ccccc4o3)cc2)c1
[4]
  Ratio IC50: 96
Acetylcholinesterase [5]
  IC50: 0.00073 µM
Cholinesterase [6]
  IC50: 0.0702 µM

## O=C(Oc1cc(O)c2c(=O)cc(-c3ccc(O)cc3)oc2c1)N1CCCCC1
Acetylcholinesterase [7]
  IC50: 62.5 µM
Cholinesterase [8]
  IC50: 0.094 µM
[9]
  Ratio IC50: 665

## C#CCN(C)C1CCc2cccc(OC(=O)N(C)C)c21 (stereo not drawn)
[10]
  IC50: 7 µM
[11]
  IC50: 0.33 µM
Acetylcholinesterase [12]
  IC50: 730 µM

## CCCCCCNC(=O)OCn1nc(-c2ccccc2OC)ccc1=O
Cholinesterase [13]
  IC50: 35 µM

## CC(C)c1ccc(NC(=O)Oc2ccc3c(c2)C2(C)COC(C2)O3)cc1 (stereo not drawn)
[14]
  Ratio IC50: 195

## O=C(Nc1cccc([N+](=O)[O-])c1)OCCNc1c2ccccc2nc2ccccc12
Acetylcholinesterase [15]
  IC50: 0.0221 µM
Cholinesterase [16]
  IC50: 0.017 µM

## CCN(C)C(=O)Oc1cc(OC(=O)N(C)CC)cc(C(O)CNC(C)(C)CC)c1 (stereo not drawn)
[17]
  Ratio IC50: > 862

## CN(CCCOc1ccc2c(=O)c3ccccc3oc2c1)Cc1cccc(OC(=O)NCCCCCCCCCN2CCOCC2)c1
Cholinesterase [18]
  IC50: 0.0293 µM
Acetylcholinesterase [19]
  IC50: 0.0089 µM

## C#CCN(C)C1CCc2c(OC(=O)N(C)CC)cccc21 (stereo not drawn)
Cholinesterase [8]
  IC50: 14.9 µM
[10]
  IC50: 0.79 µM
[11]
  IC50: 0.027 µM
Acetylcholinesterase [12]
  IC50: 4 µM

## CCC(C)(C)NCC(O)c1cc(O)cc(OC(=O)N(C)C)c1 (stereo not drawn)
Acetylcholinesterase [7]
  IC50: 20 µM
Cholinesterase [8]
  IC50: 0.05 µM
[9]
  Ratio IC50: 400

## COc1ccccc1-c1ccc(=O)n(COC(=O)Nc2ccc(C)cc2)n1
Cholinesterase [13]
  IC50: 34.5 µM

## COc1cc(/C=C/C(=O)NCCCCNC(=O)Oc2ccc3c(c2)CN2CCc4ccccc4C2N3C)ccc1O (stereo not drawn)
Cholinesterase [20]
  IC50: 0.102 µM

## CC(C)c1ccc(NC(=O)Oc2ccc3c(c2)[C@]2(C)CCO[C@@H]2O3)cc1
Cholinesterase [20]
  IC50: 0.027 µM

## CN1CCN(C(=O)Oc2ccc(-c3coc4cc(OC(=O)N5CCN(C)CC5)ccc4c3=O)cc2)CC1
Acetylcholinesterase [1]
  IC50: 1.2 µM

## CNC(=O)Oc1cccc(CN(C)CCCCCCOc2ccc(C(=O)/C=C/c3cc(OC)c(OC)c(OC)c3)c(O)c2)c1
Cholinesterase [2]
  IC50: 0.0302 µM
Acetylcholinesterase [3]
  IC50: 0.00133 µM
[4]
  Ratio IC50: 23

## CCCCCCCCNC(=O)Oc1cc(OC(=O)NCCCCCCCC)cc(OC(=O)NCCCCCCCC)c1
Acetylcholinesterase [15]
  IC50: 0.015 µM

## CC(C)c1ccc(NC(=O)Oc2ccc3c(c2)[C@]2(C)CCN(CCc4ccccc4)[C@@H]2N3C)cc1
Acetylcholinesterase [21]
  IC50: > 30 µM
[14]
  Ratio IC50: > 5000

## COC(=O)C1=CN([11CH3])c2cccc(OC(=O)N(C)C)c2C1
Acetylcholinesterase [7]
  IC50: > 1000 µM

## COC(=O)CCC/C=C\C/C=C\C/C=C\CCOC(=O)Nc1ccc(Cl)cc1
Acetylcholinesterase [22]
  IC50: 20.2 µM
Acetylcholinesterase [23]
  Ki: 2.62 µM

## CCCCCCCNC(=O)OCn1nc(-c2ccccc2OC)ccc1=O
Cholinesterase [13]
  IC50: 12.8 µM

## C#CCNC1CCc2c(OC(=O)N(C)C)cccc21 (stereo not drawn)
[10]
  IC50: 0.053 µM
[11]
  IC50: 0.26 µM
Acetylcholinesterase [12]
  IC50: 86 µM

## C#CCN[C@@H]1CCc2ccc(OC(=O)N(C)CC)cc21
Cholinesterase [8]
  IC50: 4.1 µM
[10]
  IC50: 0.77 µM
[11]
  IC50: 2 µM
Acetylcholinesterase [12]
  IC50: 1000 µM
